For series [1], the system named is Hepatitis C virus. Nature of the series: Antiviral activity against HCV genotype 1 infected in human assessed as cure rate. It counts as functional, Hepacivirus hominis.
Series [2] is described as follows: Kinetic solubility of the compound in 10 mM of phosphate buffer at pH 7.2 by CLND method. It counts as physicochemical. Conditions: read-out: Kinetic_solubility.
The nature of series [3]: AUC in dog at 2.5 mg/kg, po. It is filed as ADME, organism-based, Canis lupus familiaris. Further details: dose 2.5 mg/kg, route oral. The note with it: plasma.
Series [4] relates to Hepatitis C virus. Nature of the series: Ratio of EC50 for HCV1a H77 infected in human HuH7 cells in presence of 40% human plasma to EC50 for HCV1a H77 infected in human HuH7 cells in absence of 40% human plasma. It is filed as functional, Hepacivirus hominis, genotype 1a H77, Huh-7.
Series [5] can be described thus: Oral bioavailability in rat at 3 mg/kg. It is filed as ADME, organism-based. The note with it: in vivo.
The nature of series [6]: Metabolic stability in rat liver microsomes assessed as compound remaining after 30 mins. It is filed as ADME. Conditions: read-out: Stability. A general note: Liver microsomes are vesicles of endoplasmic reticulum, rich in cytochrome P450 enzymes.
Series [7] has as its system Hepatitis C virus. Nature of the series: Antiviral activity against HCV1a H77 infected in human HuH7 cells assessed as inhibition of viral replication after 4 days by luciferase reporter gene assay in presence of 40% human plasma. It is filed as functional, organism-based, Hepacivirus hominis. The note with it: genotype 1a H77, Huh-7, Plasma, 96 h.
Series [8] can be described thus: Half life in dog at 1 mg/kg, iv. It is filed as ADME, organism-based, Canis lupus familiaris. More on the design: dose 1 mg/kg, route intravenous. Conditions: in vivo.
Series [9] in a line: Oral bioavailability in dog at 2.5 mg/kg. It counts as ADME, organism-based, Canis lupus familiaris. Conditions: in vivo.
The nature of series [10]: Half life in monkey at 1 mg/kg, iv. It counts as ADME, organism-based, Macaca mulatta. More on the design: dose 1 mg/kg, route intravenous. The note with it: rhesus monkey, in vivo.
Series [11] is described as follows: Half life in dog at 2.5 mg/kg, po. It counts as ADME, organism-based, Canis lupus familiaris. Further details: dose 2.5 mg/kg, route oral. The note with it: in vivo.
A short description of series [12]: Cmax in dog at 2.5 mg/kg, po. It is filed as ADME, organism-based, Canis lupus familiaris. Further details: dose 2.5 mg/kg, route oral. Conditions: in vivo.
Series [13] is described as follows: AUC in monkey at 2.5 mg/kg, po. It is filed as ADME, organism-based, Macaca mulatta. Further details: dose 2.5 mg/kg, route oral. The note with it: rhesus monkey, plasma.
Series [14] is described as follows: Clearance in dog at 1 mg/kg, iv. It counts as ADME, organism-based, Canis lupus familiaris. More on the design: dose 1 mg/kg, route intravenous. The note with it: in vivo.
Series [15] is described as follows: Half life in rat at 3 mg/kg, iv. It counts as ADME, organism-based. More on the design: dose 3 mg/kg, route intravenous. Conditions: in vivo.
Series [16] in a line: AUC in rat at 3 mg/kg, po. It is filed as ADME, organism-based. Further details: dose 3 mg/kg, route oral. The note with it: plasma.
In series [17] the test system is Hepatitis C virus. The series is described as follows: Ratio of EC50 for HCV1b Con1 infected in human HuH7 cells in presence of 40% human plasma to EC50 for HCV1b Con1 infected in human HuH7 cells in absence of 40% human plasma. It counts as functional, Hepacivirus hominis, isolate Con1, Huh-7.
Series [18] in a line: Tmax in rat at 3 mg/kg, po. It is filed as ADME, organism-based. More on the design: dose 3 mg/kg, route oral. The note with it: in vivo.
Series [19] can be described thus: Clearance in rat at 3 mg/kg, iv. It counts as ADME, organism-based. More on the design: dose 3 mg/kg, route intravenous. The note with it: in vivo.
Series [20] can be described thus: Half life in rat at 3 mg/kg, po. It counts as ADME, organism-based. More on the design: dose 3 mg/kg, route oral. The note with it: in vivo.
Series [21] can be described thus: Volume of distribution at steady state in dog at 1 mg/kg, iv. Further details: dose 1 mg/kg, route intravenous. The note with it: in vivo, read-out: Vdss. It counts as ADME, organism-based, Canis lupus familiaris.
The nature of series [22]: Volume of distribution at steady state in rat at 3 mg/kg, iv. Further details: dose 3 mg/kg, route intravenous. The note with it: in vivo, read-out: Vdss. It is filed as ADME, organism-based.
The nature of series [23]: Tmax in monkey at 2.5 mg/kg, po. Further details: dose 2.5 mg/kg, route oral. The note with it: rhesus monkey, in vivo. It is filed as ADME, organism-based, Macaca mulatta.
For series [24], the system named is Hepatitis C virus. The series is described as follows: Antiviral activity against HCV1b Con1 infected in human HuH7 cells assessed as inhibition of viral replication after 4 days by luciferase reporter gene assay. Conditions: isolate Con1, Huh-7, 96 h. It is filed as functional, organism-based, Hepacivirus hominis. A general note: In a reporter assay the amount or activity of a reporter protein is the signal.

The subject of series [25] is Hepatitis C virus. Nature of the series: Antiviral activity against HCV1b Con1 infected in human HuH7 cells assessed as inhibition of viral replication after 4 days by luciferase reporter gene assay in presence of 40% human plasma. It counts as functional, organism-based, Hepacivirus hominis. Conditions: isolate Con1, Huh-7, Plasma, 96 h.
Series [26] is described as follows: Cmax in rat at 3 mg/kg, po. The note with it: in vivo. It counts as ADME, organism-based. More on the design: dose 3 mg/kg, route oral.
A short description of series [27]: Oral bioavailability in monkey at 2.5 mg/kg. It is filed as ADME, organism-based, Macaca mulatta. Conditions: rhesus monkey, in vivo.
Series [28] is described as follows: Tmax in dog at 2.5 mg/kg, po. It is filed as ADME, organism-based, Canis lupus familiaris. More on the design: dose 2.5 mg/kg, route oral. Conditions: in vivo.
Series [29] in a line: Metabolic stability in human liver microsomes assessed as compound remaining after 30 mins. Conditions: read-out: Stability. It is filed as ADME.
A short description of series [30]: Half life in monkey at 2.5 mg/kg, po. It is filed as ADME, organism-based, Macaca mulatta. Further details: dose 2.5 mg/kg, route oral. The note with it: rhesus monkey, in vivo.
Series [31] in a line: Volume of distribution at steady state in monkey at 1 mg/kg, iv. It is filed as ADME, organism-based, Macaca mulatta. More on the design: dose 1 mg/kg, route intravenous. The note with it: rhesus monkey, in vivo, read-out: Vdss.
Series [32] can be described thus: Cmax in monkey at 2.5 mg/kg, po. Conditions: rhesus monkey, in vivo. It counts as ADME, organism-based, Macaca mulatta. Further details: dose 2.5 mg/kg, route oral.
Series [33] can be described thus: Clearance in monkey at 1 mg/kg, iv. Conditions: rhesus monkey, in vivo. More on the design: dose 1 mg/kg, route intravenous. It counts as ADME, organism-based, Macaca mulatta.
Series [34] in a line: Lipophilicity, log D of the compound at pH 7.4 by HPLC analysis. The note with it: buffer. It counts as physicochemical.
Series [35] deals with Hepatitis C virus. Nature of the series: Antiviral activity against HCV1a H77 infected in human HuH7 cells assessed as inhibition of viral replication after 4 days by luciferase reporter gene assay. It is filed as functional, organism-based, Hepacivirus hominis. The note with it: genotype 1a H77, Huh-7, 96 h.

Each structure is given as a SMILES string. Values after ≈ are worked out from the molar mass of the structure shown.

On to `CCC[C@H](NC(=O)[C@@H]1[C@H]2CCC[C@H]2CN1C(=O)[C@@H](NC(=O)[C@@H](NC(=O)c1cnccn1)C1CCCCC1)C(C)(C)C)C(=O)C(=O)NC1CC1`, for which the Activity entry with Hepatitis C virus [1] is “<=75%”.
One may read the AUC as the area under the concentration-time curve, a measure of exposure. The bioavailability is the share of a dose that reaches the circulation, judged against a reference dose that is usually intravenous. The EC50 is the concentration at which the effect is half-maximal. A word on the half-life: it is the time needed for the level to fall by half in the phase considered. For orientation: Cmax means the maximum level reached in the sampled fluid or tissue. What is called clearance is a measure of how efficiently the substance is removed, as volume per time. Usually Tmax stands for the time from dosing to the highest level. A word on the logD: it is lipophilicity at a set pH, counting ionised and neutral species. `COC(=O)N[C@H](C(=O)N1CCC[C@H]1C(=O)Nc1ccc([C@H]2CC[C@H](c3ccc(NC(=O)[C@@H]4CCCN4C(=O)[C@@H](NC(=O)OC)C(C)(C)C)cc3)N2c2ccc(F)cc2)cc1)C(C)(C)C`: the solubility kinetic in [2] turned out to be 3.9 µM (≈ 3.45 µg/mL). Moreover, the AUC worked out at 18300 ng·h/mL in [3], 490 ng·h/mL in series [13] and 10200 ng·h/mL in [16]. In addition, the entries for the “Ratio EC50” value in the series with Hepatitis C virus [4] and in the series on Hepatitis C virus [17] were 18 and 20, respectively. For the same compound, the bioavailability in series [5] stood at 39%; in series [9], 94%; in [27], 18%. Besides, the remaining at 0.5 h in series [6] is 69%; in series [29] it was 54%. Further, the 50% effective concentration (EC50) is 20800 pM in the series with Hepatitis C virus [7], 8 pM in the series on Hepatitis C virus [24], 162 pM in the series on Hepatitis C virus [25] and 1180 pM in the series with Hepatitis C virus [35]. Further, the half-life in series [8] was 9.1 h; in series [10] it was 4.6 h; in [11], 10.3 h; in [15], 7.5 h; in series [20] it was 7 h; in series [30], 5.4 h. Moreover, the figures for the Cmax in [12], in series [26] and in [32] were 1070 ng/mL, 960 ng/mL and 120 ng/mL, respectively. The clearance in series [14] is 2.17 mL/min/kg; in series [19], 1.67 mL/min/kg; in series [33] it was 15.5 mL/min/kg. The Tmax in series [18] was 2.3 h; in [23] it was 1.7 h; in [28] it was 2.7 h. Moreover, the Vd worked out at 1.6 L/kg in [21], 1 L/kg in [22] and 4.1 L/kg in series [31]. For the same compound, the logD in series [34] is 5.2.
With `COC(=O)N[C@H](C(=O)N1CCC[C@H]1C(=O)Nc1ccc([C@@H]2CC[C@@H](c3ccc(NC(=O)[C@@H]4CCCN4C(=O)[C@@H](NC(=O)OC)[C@H]4CCOC4)cc3)N2c2ccc(F)cc2)cc1)[C@H]1CCOC1`, the solubility kinetic in series [2] stood at 9.7 µM (≈ 8.85 µg/mL). The entries for the “Ratio EC50” value with Hepatitis C virus [4] and in the series with Hepatitis C virus [17] were 14 and 24, respectively. Besides, in series [5], the bioavailability turned out to be 1.5%. Moreover, the remaining at 0.5 h in series [6] came out at 42%; in [29], 41%. Moreover, the EC50 was determined as 1390 pM with Hepatitis C virus [7], 54 pM with Hepatitis C virus [24], 1270 pM in the series on Hepatitis C virus [25] and 102 pM in the series on Hepatitis C virus [35]. Further, the half-life in series [15] was 0.9 h; in series [20], 0.6 h. Besides, the AUC in [16] was 20 ng·h/mL. Moreover, in series [18], the Tmax was determined as 0.4 h. The same compound gave a clearance in series [19] of 31.7 mL/min/kg. Moreover, the Vd in series [22] is 0.5 L/kg. This compound came in with a Cmax in [26] of 20 ng/mL. In series [34], this compound had a logD of 3.2.
As for `COC(=O)N[C@H](C(=O)N1CCC[C@H]1C(=O)Nc1ccc([C@H]2CC[C@H](c3ccc(NC(=O)[C@@H]4CCCN4C(=O)[C@@H](NC(=O)OC)[C@H]4CCOC4)cc3)N2c2ccc(F)cc2)cc1)[C@H]1CCOC1`, the solubility kinetic in series [2] turned out to be 8.5 µM (≈ 7.75 µg/mL). The results for the “Ratio EC50” value in the series on Hepatitis C virus [4] and with Hepatitis C virus [17] were 7 and 9, respectively. Besides, the bioavailability in [5] came to 3.2%. In addition, the remaining at 0.5 h came to 46% in [6] and 47% in series [29]. The EC50 amounted to 1920 pM in the series on Hepatitis C virus [7], 106 pM in the series with Hepatitis C virus [24], 917 pM in the series with Hepatitis C virus [25] and 281 pM in the series with Hepatitis C virus [35]. Moreover, the half-life in series [15] was 0.8 h; in [20] it was 0.5 h. This compound displayed an AUC in [16] of 20 ng·h/mL. Also, the Tmax in series [18] turned out to be 0.3 h. The compound also had a clearance in series [19] of 66.7 mL/min/kg. In addition, the Vd in [22] was 1.5 L/kg. Also, the peak level in series [26] (Cmax) was 30 ng/mL. In addition, the logD in series [34] came to 3.2.
